In patent publication US10287253B2, “Substituted pyrimidines containing acidic groups as TLR7 modulators” (Apros Therapeutics, Inc., priority 2016, dated 2019):

Tests used:
[1] = biological target: human TLR7 (hTLR7) (Homo sapiens (Human), UniProt Q9NYK1); test: HEK TLR7 assay (HEK-Blue hTLR7 cells, NF-kB/AP-1 SEAP reporter); type: cell-based; conditions: for EC50: HEK-Blue hTLR7 cells, 16 h incubation, SEAP read at 620-655 nm
Source text: HEK-Blue™ TLR7 cells were purchased from Invivogen (San Diego, Calif.). The following description was taken from the product information sheet.
“HEK-Blue™ hTLR7 cells are designed for studying the stimulation of human TLR7 (hTLR7) by monitoring the activation of NF-kB. HEK-Blue™ hTLR7 cells were obtained by co-transfection of the hTLR7 gene and an optimized secreted embryonic alkaline phosphatase (SEAP) reporter gene into HEK293 cells. The SEAP reporter gene is placed under the control of the IFN-b minimal promoter fused to five NF-kB and AP-1-binding sites. Stimulation with a TLR7 ligand activates NF-kB and AP-1 which induce the production of SEAP, which is detected by the HEK-Blue™ Detection cell culture medium.”
A typical assay protocol involved the following steps: • 1. Cells were cultured according to the product information sheet. • 2. 10 mM compound stock in DMSO were first diluted to 3 mM and then 3-fold serially diluted using DMSO to afford a 10-pt dilution. • 3. 3 μl of the diluted DMSO were added to 57 μl HEK-Blue™ Detection media for a further 20-fold dilution. • 4. 10 μl of the diluted compound in assay media were added into 40 μl cell culture (in HEK-Blue™ Detection media) in 384-well plate. Final cell concentration=8,000 cells per well. • 5. The plates were incubated at 37° C. in 5% CO2 for 16 h. SEAP was determined using a spectrophotometer at 620-655 nm.

[2] = Pharmacokinetics experiments: mouse liver-to-serum concentration (L:S); type: in vivo; conditions: BALB/c mice, 10 mg/kg p.o., 5 hour post dose
Procedure: BALB/c mice were dosed p.o. with 10 mg/kg compound formulated in 0.5% carboxy methycellulose+0.5% Tween-80 suspension. Mice were bled retro-orbitally at different time points post dose. Blood was processed into serum by centrifugation followed by protein precipitation, reverse-phase gradient elution and MRM detection via ESI+mass spectrometry to determine compound concentration. Animals were sacrificed after the final blood collection (5 hour), liver removed and flash frozen in liquid nitrogen for tissue PK analyses. The liver-to-serum concentration (L:S) at 5 hour post dose is one parameter for identifying compounds with potential enrichment in liver.
Mouse liver-to-serum concentration (L:S) table below provides results.

human TLR7 (hTLR7), sequence (Q9NYK1 27-1049): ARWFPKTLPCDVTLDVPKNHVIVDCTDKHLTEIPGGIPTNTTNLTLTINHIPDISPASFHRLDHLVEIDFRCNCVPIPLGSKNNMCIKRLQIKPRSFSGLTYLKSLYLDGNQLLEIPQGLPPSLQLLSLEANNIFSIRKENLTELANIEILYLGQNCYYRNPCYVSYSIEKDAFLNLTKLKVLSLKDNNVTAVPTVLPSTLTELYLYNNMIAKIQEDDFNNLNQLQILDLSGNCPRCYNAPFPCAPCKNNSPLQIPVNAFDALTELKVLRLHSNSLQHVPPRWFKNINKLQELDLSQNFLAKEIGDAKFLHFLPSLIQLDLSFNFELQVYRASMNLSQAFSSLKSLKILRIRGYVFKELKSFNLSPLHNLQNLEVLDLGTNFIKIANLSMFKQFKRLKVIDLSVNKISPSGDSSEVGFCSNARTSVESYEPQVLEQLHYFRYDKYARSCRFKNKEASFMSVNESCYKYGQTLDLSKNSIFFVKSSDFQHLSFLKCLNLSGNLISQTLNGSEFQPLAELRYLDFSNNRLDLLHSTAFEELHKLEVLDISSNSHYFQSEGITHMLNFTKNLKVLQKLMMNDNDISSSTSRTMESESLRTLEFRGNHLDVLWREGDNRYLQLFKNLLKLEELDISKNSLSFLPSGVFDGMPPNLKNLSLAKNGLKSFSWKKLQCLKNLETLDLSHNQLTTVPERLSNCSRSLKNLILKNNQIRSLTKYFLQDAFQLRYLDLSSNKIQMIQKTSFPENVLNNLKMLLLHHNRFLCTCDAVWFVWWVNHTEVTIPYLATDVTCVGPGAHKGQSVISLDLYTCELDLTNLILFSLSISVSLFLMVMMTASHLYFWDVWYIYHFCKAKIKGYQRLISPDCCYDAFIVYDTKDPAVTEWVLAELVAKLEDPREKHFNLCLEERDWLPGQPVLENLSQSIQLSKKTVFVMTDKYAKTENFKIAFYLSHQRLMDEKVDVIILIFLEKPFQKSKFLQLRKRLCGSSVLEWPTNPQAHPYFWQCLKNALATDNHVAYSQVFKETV

| Compound | EC50 [1] [nM] | L:S at 5 hr (liver-to-serum concentration) [2] | potency of (S)-enantiomer relative to (R)-enantiomer (Compound 20C) in the HEK-TLR7 assay ([1]; Compound 20 vs Compound 20C) [fold] |
| --- | --- | --- | --- |
| CCCCNc1nc(N)nc(C)c1Cc1cc(-c2nn[nH]n2)ccc1OC [Compound 11, N4-butyl-5-(2-methoxy-5-(2H-tetrazol-5-yl)benzyl)-6-methylpyrimidine-2,4-diamine] | 100 to 1000 | A (A = >100 represents high liver-enrichment) |  |
| CCCCNc1nc(N)nc(C)c1Cc1cc(P(=O)(O)O)ccc1OC [Compound 12, (3-((2-amino-4-(butylamino)-6-methylpyrimidin-5-yl)methyl)-4-methoxyphenyl)phosphonic acid] | 100 to 1000 | B (B = 10-100 represents moderate liver-enrichment) |  |
| CCCCNc1nc(N)nc(C)c1Cc1cc(C2(c3nn[nH]n3)CC2)ccc1OC [Compound 13, 5-(5-(1-(2H-tetrazol-5-yl)cyclopropyl)-2-methoxybenzyl)-N4-butyl-6-methylpyrimidine-2,4-diamine] | 100 to 1000 | B (B = 10-100 represents moderate liver-enrichment) |  |
| CCCCNc1nc(N)nc(CCC(=O)O)c1Cc1ccccc1OC [Compound 15, 3-(2-amino-6-(butylamino)-5-(2-methoxybenzyl)pyrimidin-4-yl)propanoic acid] | 100 to 1000 | B (B = 10-100 represents moderate liver-enrichment) |  |
| CCCCNc1nc(N)nc(C)c1Cc1cc(S(=O)(=O)O)ccc1OC [Compound 17, 3-((2-amino-4-(butylamino)-6-methylpyrimidin-5-yl)methyl)-4-methoxybenzenesulfonic acid] | < 100 | B (B = 10-100 represents moderate liver-enrichment) |  |
| CCCC[C@@H](CCO)Nc1nc(N)nc(C)c1Cc1cc(Cc2nn[nH]n2)ccc1OC [Compound 18, (S)-3-((5-(5-((2H-tetrazol-5-yl)methyl)-2-methoxybenzyl)-2-amino-6-methylpyrimidin-4-yl)amino)heptan-1-ol] | < 100 | A (A = >100 represents high liver-enrichment) |  |
| CCCC[C@@H](CC(=O)O)Nc1nc(N)nc(C)c1Cc1cc(Cc2nn[nH]n2)ccc1OC [Compound 20, (S)-3-((5-(5-((2H-tetrazol-5-yl)methyl)-2-methoxybenzyl)-2-amino-6-methylpyrimidin-4-yl)amino)heptanoic acid] | 100 to 1000 | A (A = >100 represents high liver-enrichment) | > 10 |
| CCCCNc1nc(N)nc(C)c1Cc1cc(B(O)O)ccc1OC [Compound 24, (3-((2-amino-4-(butylamino)-6-methylpyrimidin-5-yl)methyl)-4-methoxyphenyl)boronic acid] | < 100 | B (B = 10-100 represents moderate liver-enrichment) |  |
| CCCC[C@@H](CC(=O)O)Nc1nc(N)nc(CCC(=O)O)c1Cc1ccccc1OC [Compound 29, (S)-3-((2-amino-6-(2-carboxyethyl)-5-(2-methoxybenzyl)pyrimidin-4-yl)amino)heptanoic acid] | 100 to 1000 | A (A = >100 represents high liver-enrichment) |  |
| CCCCNc1nc(N)nc(C)c1Cc1cc(C(=O)NCCCP(=O)(O)O)ccc1OC [Compound 30, (3-(3-((2-amino-4-(butylamino)-6-methylpyrimidin-5-yl)methyl)-4-methoxybenzamido)propyl)phosphonic acid] | 100 to 1000 | A (A = >100 represents high liver-enrichment) |  |
| CCCC[C@@H](CCOC)Nc1nc(N)nc(C)c1Cc1cc(Cc2nn[nH]n2)ccc1OC [Compound 32, (S)-5-(5-((2H-tetrazol-5-yl)methyl)-2-methoxybenzyl)-N^4-(1-methoxyheptan-3-yl)-6-methylpyrimidine-2,4-diamine] | < 100 | A (A = >100 represents high liver-enrichment) |  |
| CCCC[C@@H](CCSC)Nc1nc(N)nc(C)c1Cc1cc(C(C)(C)C(=O)O)ccc1OC [Compound 33, (S)-2-(3-((2-amino-4-methyl-6-((1-(methylthio)heptan-3-yl)amino)pyrimidin-5-yl)methyl)-4-methoxyphenyl)-2-methylpropanoic acid] | < 100 | A (A = >100 represents high liver-enrichment) |  |
| CCCC[C@@H](CCSC)Nc1nc(N)nc(C)c1Cc1cc(-c2nn[nH]n2)ccc1OC [Compound 34, (S)-5-(2-methoxy-5-(2H-tetrazol-5-yl)benzyl)-6-methyl-N^4-(1-(methylthio)heptan-3-yl)pyrimidine-2,4-diamine] | < 100 | A (A = >100 represents high liver-enrichment) |  |
| CCCCNc1nc(N)nc(CCC(=O)O)c1Cc1cc(Cc2nn[nH]n2)ccc1OC [Compound 40, 3-(5-(5-((2H-tetrazol-5-yl)methyl)-2-methoxybenzyl)-2-amino-6-(butylamino)pyrimidin-4-yl)propanoic acid] | 100 to 1000 | A (A = >100 represents high liver-enrichment) |  |
| CCCC[C@@H](CC(=O)O)Nc1nc(N)nc(C)c1Cc1ccccc1OC [Compound 41, (S)-3-((2-amino-5-(2-methoxybenzyl)-6-methylpyrimidin-4-yl)amino)heptanoic acid] | 100 to 1000 | B (B = 10-100 represents moderate liver-enrichment) |  |
| CCCC[C@@H](CC(=O)O)Nc1nc(N)nc(C)c1Cc1cc(C(C)(C)C(=O)O)ccc1OC [Compound 42, (S)-3-((2-amino-5-(5-(2-carboxypropan-2-yl)-2-methoxybenzyl)-6-methylpyrimidin-4-yl)amino)heptanoic acid] | 100 to 1000 | A (A = >100 represents high liver-enrichment) |  |
| CCCCNc1nc(N)nc(CCC(=O)O)c1Cc1cc(C(C)(C)C(=O)O)ccc1OC [Compound 43, 2-(3-((2-amino-4-(butylamino)-6-(2-carboxyethyl)pyrimidin-5-yl)methyl)-4-methoxy-phenyl)-2-methylpropanoic acid] | 1000 to 10000 | A (A = >100 represents high liver-enrichment) |  |
| CCCC[C@@H](CC(=O)O)Nc1nc(N)nc(C)c1Cc1cc(C(=O)NCCCP(=O)(O)O)ccc1OC [Compound 44, (S)-3-((2-amino-5-(2-methoxy-S-((3-phosphonopropyl)carbamoyl)benzyl)-6-methyl-pyrimidin-4-yl)amino)heptanoic acid] | 100 to 1000 | B (B = 10-100 represents moderate liver-enrichment) |  |
| CCCC[C@@H](CC(=O)O)Nc1nc(N)nc(CCC(=O)O)c1Cc1cc(C(C)(C)C(=O)O)ccc1OC [Compound 45, (S)-3-((2-amino-6-(2-carboxyethyl)-5-(5-(2-carboxypropan-2-yl)-2-methoxy-benzyl)pyrimidin-4-yl)amino)heptanoic acid] | 1000 to 10000 | A (A = >100 represents high liver-enrichment) |  |
| CCCC[C@@H](CC(=O)O)Nc1nc(N)nc(CCC(=O)O)c1Cc1cc(Cc2nn[nH]n2)ccc1OC [Compound 46, (S)-3-((5-(5-((2H-tetrazol-5-yl)methyl)-2-methoxybenzyl)-2-amino-6-(2-carboxyethyl)-pyrimidin-4-yl)amino)heptanoic acid] | 100 to 1000 | B (B = 10-100 represents moderate liver-enrichment) |  |
